Experimental data: US10441663B2, “Methods for treating cancer” (Bicycle Therapeutics Limited, priority 2016, dated 2019)

Tested on: LU-01-0486 PDX model
Assay type: in vivo, Mus Musculus
Conditions: Docetaxel group
Procedure: The objective of this study was to evaluate the in vivo anti-tumor efficacy of BT1718 in the treatment of MT1-MMP low-expressing LU-01-0486 PDX model in female Balb/C nude mice
Each mouse was inoculated subcutaneously at the right flank with LU-01-0486 of tumor fragment (30 mm^3) for tumor development. The treatments was started when the average tumor volume reaches 164 mm^3.
All the procedures related to animal handling, care and the treatment in the study were performed following the guidance of the Association for Assessment and Accreditation of Laboratory Animal Care (AAALAC). At the time of routine monitoring, the animals were daily checked for any effects of tumor growth and treatments on normal behavior such as mobility, food and water consumption (by looking only), body weight gain/loss (body weights were measured twice weekly), eye/hair matting and any other abnormal effect as stated in the protocol. Death and observed clinical signs were recorded on the basis of the numbers of animals within each subset.
The major endpoint was to see if the tumor growth could be delayed or mice could be cured. Tumor size was measured two times weekly in two dimensions using a caliper, and the volume was expressed in mm^3 using the formula: V=0.5 a×b^2 where a and b are the long and short diameters of the tumor, respectively. The tumor size was then used for calculations of T/C value. […]
TGI was calculated for each group using the formula: TGI (%)=[1−(Ti−T0)/(Vi−V0)]×100; Ti is the average tumor volume of a treatment group on a given day, T0 is the average tumor volume of the treatment group on the day of treatment start, Vi is the average tumor volume of the vehicle control group on the same day with Ti, and V0 is the average tumor volume of the vehicle group on the day of treatment start. […]
A one-way ANOVA was performed to compare tumor volume among groups, and when a significant F-statistics (a ratio of treatment variance to the error variance) was obtained, comparisons between groups were carried out with Games-Howell test. All data were analyzed using Prism. […]

For CC(=O)O[C@@]12CO[C@@H]1C[C@H](O)[C@@]1(C)C(=O)[C@H](O)C3=C(C)[C@@H](OC(=O)[C@H](O)[C@@H](NC(=O)OC(C)(C)C)c4ccccc4)C[C@@](O)([C@@H](OC(=O)c4ccccc4)[C@H]21)C3(C)C [Docetaxel, reference compound], the tumor growth was “significant inhibition of tumor growth”.
